# Test results taken from US20110263608A1, “16-KETO ASPERGILLIMIDES AND HARMFUL ORGANISM CONTROL AGENT COMPRISING THE SAME AS ACTIVE INGREDIENT” (Meiji Seika Pharma Co., Ltd., priority 2008, published 2011).
# Like-named read-outs stand apart in the source and are kept apart here.
# Experiments:
# Assay type in all cases: in vivo
# [1] = system: Haemaphysalis longicornis; assay: Tickcidal effect against Haemaphysalis longicornis (dry film in glass vial); conditions: 24 h, read-out: Death rate after one day
# Description: Acetone solution (30 μl) of 200 ppm of compounds 1 to 9 and 20 ppm of compounds A and B was placed in 4 mL-volume glass vials. The vials were placed on a shaker, and a dry film of the compound was formed on the inner wall of the vials. The vials were dried for 24 hr or longer. Larva ticks of Haemaphysalis longicornis (10 heads) were released in the vials, and the vials were lidded.
# (§1) Death rate (%)={number of dead larvae/(number of survived larvae+number of dead larvae)}×100
# [2] = system: Aphis gossypii; assay: Insecticidal effect against Aphis gossypii (cucumber leaf disk); conditions: foliar, 72 h, read-out: insecticidal activity (death rate)
# Description: A leaf disk having a diameter of 2.0 cm was cut out from a cucumber in pot culture, and test solutions adjusted to a 200 ppm concentration (50% aqueous acetone solution; 0.05% Tween 20 added) were applied to the leaf disk. The leaf disk was then air dried, and first instar larvae were released and were then allowed to stand in a humidistat chamber (light period 16 hr—dark period 8 hr) (25° C.). […] The test was duplicated.
# as §1
# [3] = system: Laodelphax striatellus; assay: Insecticidal effect against Laodelphax striatellus (root absorption, wheat seedlings); conditions: 72 h, read-out: insecticidal activity (death rate)
# Description: A test solution (200 μl) adjusted to a 100 ppm concentration (10% aqueous acetone solution) was applied to the root of wheat seedlings in water culture. After the absorption of the test solution from the root for 3 days, 10 second instar larvae of Laodelphax striatellus were released, and the wheat seedlings were then allowed to stand in a humidistat chamber (light period 16 hr—dark period 8 hr) (25° C.). […] The test was duplicated.
# as §1
# [4] = system: Frankliniella occidentalis; assay: Insecticidal effect against Frankliniella occidentalis (kidney bean leaf disk); conditions: 100 ppm, first instar larvae, six days after release
# Description: A leaf disk having a diameter of 2.8 cm was cut out from kidney bean in pot culture, and a test solutions adjusted to a 100 ppm concentration (50% aqueous acetone solution; 0.05% Tween 20 added) were applied to the leaf disk. The leaf disk was then air dried, and first instar larvae were released and were then allowed to stand in a humidistat chamber (light period 16 hr—dark period 8 hr) (25° C.). […] The test was duplicated. Death rate (%)={number of dead larvae/(number of survived larvae+number of dead larvae)}×100
# [5] = system: Haemaphysalis longicornis; assay: Tickcidal effect against Haemaphysalis longicornis on body surface of mouse; conditions: larvae
# Description: Skin hair on the back of mice (ICR, male, 5 week olds) was clipped in a diameter of about 2 cm, and a 15-mL polystyrene conical tube cut to have a height of about 1.5 cm was bonded to the body surface of the mice with an instant adhesive.
# as §1
# [6] = Single oral administration acute toxicity against rat; conditions: female, Jcl: Wistar, in vivo, 2000 mg/kg, single oral administration
# Description: (§2) Compound A was suspended at a concentration of 100 mg/mL using 0.5% methylcellulose. The test solution was forcibly orally administered to rats (Jcl: Wistar, female, 8 week olds) with a tube and a disposable syringe. The dose was 2000 mg/kg. […]
# [7] = system: rats (Jcl: Wistar, female); assay: as above; conditions: single oral dose 2000 mg/kg, 15 days
# Description: as §2
# [8] = system: Ctenocephalides felis; assay: Fleacidal effect against Ctenocephalides felis (treated filter paper); conditions: 6.3 ppm acetone solution (200 μL) on filter paper, adults
# Description: Acetone solution (200 μL) of 6.3 ppm of compound A was dropped on a filter paper having a diameter of 4.0 cm, and the filter paper was air-dried at room temperature to evaporate acetone. The chemical compound-treated filter paper was tightly fitted into a lid (diameter: 3.7 cm) for a 200-mL vial. About 25 adults of Ctenocephalides felis one to 3 days after adult eclosion were released in the 200 mL-volume vial, and the vial was then sealed by the vial lid with the chemical compound-treated filter paper fitted thereinto. The vial was inverted so that Ctenocephalides felis came into contact with the filter paper and, in this state, was left to stand. […] The test was triplicated.
# as §1
# [9] = 200 ppm acetone solution (30 μl), dry film, larva ticks, 25 C
# [10] = 200 ppm, first instar larvae, three days after release
# [11] = 100 ppm (200 μl) to root, second instar larvae, three days after release
compound,measurement,setting,value
C[C@H]1CC(=O)N2C[C@]34C[C@]5(C[C@@H](O)N(C)C5=O)C(C)(C)[C@H]3C[C@]12C(=O)N4C [Compound 1],pest or weed control at 200 µg/mL,[1],80%
same,pest or weed control at 200 ppm,[2],≥ 80%
same,pest or weed control at 100 ppm,[3],100%
CC(=O)O[C@@H]1C[C@]2(C[C@@]34CN5C(=O)C[C@H](C)[C@]5(C[C@@H]3C2(C)C)C(=O)N4C)C(=O)N1C [Compound 2],pest or weed control at 200 µg/mL,[1]; [9],100%
same,pest or weed control at 200 ppm,[2]; [10],≥ 80%
same,pest or weed control at 100 ppm,[3]; [11],100%
C[C@H]1CC(=O)N2C[C@]34C[C@]5(C=CN(C)C5=O)C(C)(C)[C@@H]3C[C@]12C(=O)N4C [Compound 3],pest or weed control at 200 µg/mL,[1],80%
same,pest or weed control at 200 ppm,[2],≥ 80%
same,pest or weed control at 100 ppm,[3],100%
C[C@H]1CC(=O)N2C[C@]34C[C@]5(CCN(C)C5=O)C(C)(C)[C@@H]3C[C@]12C(=O)N4C [Compound 4],pest or weed control at 200 µg/mL,[1],100%
same,pest or weed control at 200 ppm,[2],≥ 80%
same,pest or weed control at 100 ppm,[3],100%
C[C@H]1CC(=O)N2C[C@@]34C[C@@]5(C(=O)N(C)C=C5C5C[C@]6(C[C@]78CN9C(=O)C[C@H](C)[C@@]9(C[C@H]7C6(C)C)C(=O)N8C)C(=O)N5C)C(C)(C)[C@@H]3C[C@]12C(=O)N4C (some centres unmarked) [Compound 5],pest or weed control at 200 ppm,[2],≥ 80%
C[C@H]1CC(=O)N2C[C@]34C[C@@]5(C(=O)N(C)C6OC65)C(C)(C)[C@@H]3C[C@]12C(=O)N4C (some centres unmarked) [Compound 6],pest or weed control at 200 µg/mL,[1],100%
same,pest or weed control at 200 ppm,[2],≥ 80%
same,pest or weed control at 100 ppm,[3],100%
C[C@H]1CC(=O)N2C[C@]34C[C@@]5(C(=O)N(C)C(=O)C5O)C(C)(C)[C@@H]3C[C@]12C(=O)N4C (some centres unmarked) [Compound 7],pest or weed control at 200 µg/mL,[1]; [9],100%
same,pest or weed control at 200 ppm,[2]; [10],≥ 80%
same,pest or weed control at 100 ppm,[3]; [11],100%
COC1C[C@]2(C[C@@]34CN5C(=O)C[C@H](C)[C@]5(C[C@@H]3C2(C)C)C(=O)N4C)C(=O)N1C (some centres unmarked) [Compound 8],pest or weed control at 200 µg/mL,[1]; [9],100%
same,pest or weed control at 200 ppm,[2]; [10],≥ 80%
same,pest or weed control at 100 ppm,[3]; [11],100%
same,insecticidal activity (death rate),[4],not less than 80%
C[C@H]1CC(=O)N2C[C@]34C[C@]5(CC(OCc6ccccc6)N(C)C5=O)C(C)(C)[C@@H]3C[C@]12C(=O)N4C (some centres unmarked) [Compound 9],pest or weed control at 200 µg/mL,[1]; [9],100%
same,pest or weed control at 200 ppm,[2]; [10],≥ 80%
same,pest or weed control at 100 ppm,[3]; [11],100%
C[C@H]1CC(=O)N2C[C@]34C[C@@]5(C(=O)N(C)C(=O)C5Cc5ccccc5)C(C)(C)[C@@H]3C[C@]12C(=O)N4C (some centres unmarked) [Compound 10],pest or weed control at 200 ppm,[2]; [10],≥ 80%
"C[C@H]1CC(=O)N2C[C@]34C[C@]5(CC(=O)N(C)C5=O)C(C)(C)[C@@H]3C[C@]12C(=O)N4C [Compound A, 16-keto aspergillimide]",pest or weed control at 20 µg/mL,[1],100%
same,Death rate after three days,[5]; dose 2 μg/2 cm^2 on mouse body surface,60%
same,Death rate after three days,[5]; dose 6 μg/2 cm^2 on mouse body surface,93%
same,Death rate after three days,[5]; dose 10 μg/2 cm^2 on mouse body surface,100%
same,LD50 at 15 days,[6],≥ 2000 mg/kg
same,Cumulative number of dead rats 15 days after administration (number of death/total number of rats tested),[7],0/3
same,Death rate after three days,[8],73%
"C[C@H]1CCN2C[C@]34C[C@]5(CC(=O)N(C)C5=O)C(C)(C)[C@@H]3C[C@]12C(=O)N4C [Compound B, asperparaline A]",pest or weed control at 20 µg/mL,"[1]; 20 ppm acetone solution (30 μl), dry film, larva ticks, 25 C",100%
